Measured values reported in patent publication US20170157155A1, “METHOD OF TREATMENT OF NASOPHARYNGEAL CANCER” (Millennium Pharmaceuticals, Inc., priority 2012, published 2017).

Experiments:
[1] = test system: relapsed or refractory mantle cell lymphoma; settings: international multi-center Phase II study; cited from earlier work
[2] = test system: nasopharyngeal cancer; assay: Clinical response of nasopharyngeal cancer patients given the compound of formula (III-A) IV twice weekly; assay type: in vivo, human; settings: for clinical response: IV injection days 1, 4, 8 and 11 of a 21-day cycle
Description: (1) Tissue Microarray (obtained from US Biomax, Inc.) of primary nasopharyngeal cancer (n=35) (2) Tissue Microarray of metastatic nasopharyngeal cancer (obtained from US Biomax, Inc.) (n=15) (3) Tissue Microarray of other histologies of head and neck cancers (obtained from US Biomax, Inc.) (n=68) (4) Archival primary tumor biopsy samples of patients with head and neck squamous cell cancers (n=14). All samples were obtained under the appropriate informed consent. The patients were administered the compound of formula (III-A) on a twice-weekly schedule (days 1, 4, 8 and 11 of a 21-day cycle) as an IV injection. Of the primary tumor samples in (4), there were three patients with nasopharyngeal cancer.

[3] = on exposure to aqueous solution or plasma; cited from earlier work
[4] = test system: hematological and solid tumor xenograft models; settings: range of hematological and solid tumor xenograft models; cited from earlier work

| Compound | activity in patients [1] | clinical response ([2]; Patient 1, metastatic nasopharyngeal cancer of a squamous cell type, tumor NFκB p65 H-score 300) | Responder/Non-responder ([2]; Patient 1, H-score 300) | clinical response ([2]; Patient 2, nasopharyngeal cancer, tumor NFκB p65 H-score 200) | Responder/Non-responder ([2]; Patient 2, H-score 200) | clinical response ([2]; Patient 3, nasopharyngeal cancer, tumor NFκB p65 H-score 160) | Responder/Non-responder ([2]; Patient 3, H-score 160) | hydrolysis to the active form MLN2238 [3] | anti-tumor activity [4] |
| --- | --- | --- | --- | --- | --- | --- | --- | --- | --- |
| CC(C)C[C@H](NC(=O)[C@H](Cc1ccccc1)NC(=O)c1cnccn1)B(O)O [bortezomib, N-2-pyrazinecarbonyl-L-phenylalanine-L-leucineboronic acid] | confirming the activity | – | – | – | – | – | – | – | – |
| CC(C)C[C@H](NC(=O)CNC(=O)c1cc(Cl)ccc1Cl)B1OC(=O)C(CC(=O)O)(CC(=O)O)O1 [formula (III-A), 2,2′-{2-[(1R)-1-({[(2,5-dichlorobenzoyl)amino]acetyl}amino)-3-methylbutyl]-5-oxo-1,3,2-dioxaborolane-4,4-diyl}diacetic acid] | – | durable partial response | Responder | disease progressed within 4 cycles | Non-responder | progressive disease | Non-responder | rapidly hydrolyzes | demonstrated anti-tumor activity |
